The record followed here is patent US20200325127A1, “PYRIDIN-3-YL ACETIC ACID DERIVATIVES AS INHIBITORS OF HUMAN IMMUNODEFICIENCY VIRUS REPLICATION” (priority 2016, published 2020).

In this test the test system is NL-RLuc virus. As to the kind of experiment: Inhibition of HIV replication (NL-RLuc luciferase reporter virus in MT-2 cells). As to conditions: Human immunodeficiency virus 1, MT2, 120 h, read-out: EC50 μM. The format is cell-based. An excerpt: Inhibition of HIV replication: A recombinant NL-RLuc proviral clone was constructed in which a section of the nef gene from NL4-3 was replaced with the Renilla Luciferase gene. This virus is fully infectious and can undergo multiple cycles of replication in cell culture. In addition, the luciferous reporter provides a simple and easy method for quantitating the extent of virus growth and consequently, the antiviral activity of test compounds. The plasmid pNLRLuc contains the proviral NL-Rluc DNA cloned into pUC18 at the PvuII site. The NL-RLuc virus was prepared by transfection of 293T cells with the plasmid pNLRLuc. Transfections were performed using the LipofectAMINE PLUS kit from Invitrogen (Carlsbad, Calif.) according to the manufacturer and the virus generated was titered in MT-2 cells. For susceptibility analyses, the titrated virus was used to infect MT-2 cells in the presence of compound, and after 5 days of incubation, cells were processed and quantitated for virus growth by the amount of expressed luciferase. Assay media was RPMI 1640 supplemented with 10% heat inactivated fetal bovine serum (FBS), 100 units/ml penicillin G/100 units/ml streptomycin, 10 mM HEPES buffer pH 7.55 and 2 mM L-glutamine. The results from at least 2 experiments were used to calculate the EC50 values. Luciferase was quantitated using the Dual Luciferase kit from Promega (Madison, Wis.). Susceptibility of viruses to compounds was determined by incubation in the presence of serial dilutions of the compound. The 50% effective concentration (EC50) was calculated by using the exponential form of the median effect equation where (Fa)=1/[1+(ED50/drug conc.)^m](Johnson V A, Byington R T. Infectivity Assay. In Techniques in HIV Research. ed. Aldovini A, Walker B D. 71-76. New York: Stockton Press. 1990). Activity equal to A refers to a compound having an EC50≤100 nM, while B and C denote compounds having an EC50 between 100 nM and 1 uM (B) or >1 uM (C).
For orientation: Reporter assays use an easily measured gene product as a stand-in for the process of interest.
What is called EC50 is the midpoint of the concentration-response curve. Take `Cc1nc(C)c([C@H](OC(C)(C)C)C(=O)O)c(N2CCC(C)(C)CC2)c1-c1ccc2c(c1)CCN(c1ncc3cc(Br)ccc3n1)C2` [Compound 72]: the EC50 amounted to 0.004 µM.

In the case of `Cc1nc(C)c([C@H](OC(C)(C)C)C(=O)O)c(N2CCC(C)(C)CC2)c1-c1ccc2c(c1)CCN(c1ncc3ccccc3n1)C2` [Compound 73], the EC50 came out at 0.002 µM.

For `COc1ccc2cnc(N3CCc4cc(-c5c(C)nc(C)c([C@H](OC(C)(C)C)C(=O)O)c5N5CCC(C)(C)CC5)ccc4C3)nc2c1` [Compound 74], the EC50 stood at 0.006 µM.

Turning to `Cc1nc(C)c([C@H](OC(C)(C)C)C(=O)O)c(N2CCC(C)(C)CC2)c1-c1ccc2c(c1)CCN(c1ncc3cc(F)ccc3n1)C2` [Compound 75], the EC50 stood at 0.003 µM.

`Cc1nc(C)c([C@H](OC(C)(C)C)C(=O)O)c(N2CCC(C)(C)CC2)c1-c1ccc2c(c1)CCN(c1ncnc3ccccc13)C2` [Compound 76]: the EC50 was 0.002 µM.

With `Cc1nc(C)c([C@H](OC(C)(C)C)C(=O)O)c(N2CCC(C)(C)CC2)c1-c1ccc2c(c1)CCN(c1nccc3cccnc13)C2` [Compound 77], the EC50 worked out at 0.002 µM.

On to `Cc1nc(C)c([C@H](OC(C)(C)C)C(=O)O)c(N2CCC(C)(C)CC2)c1-c1ccc2c(c1)CCN(c1nccc3ccccc13)C2` [Compound 78], for which the EC50 is 0.003 µM.

On to `Cc1nc(C)c([C@H](OC(C)(C)C)C(=O)O)c(N2CCC(C)(C)CC2)c1-c1ccc2c(c1)CCN(c1nc(C(F)(F)F)cc3ccccc13)C2` [Compound 79], for which the EC50 worked out at 0.007 µM.

On to `COc1ccc2c(N3CCc4cc(-c5c(C)nc(C)c([C@H](OC(C)(C)C)C(=O)O)c5N5CCC(C)(C)CC5)ccc4C3)ncnc2c1` [Compound 80], for which the EC50 was 0.001 µM.

In the case of `COc1ccc2ncnc(N3CCc4cc(-c5c(C)nc(C)c([C@H](OC(C)(C)C)C(=O)O)c5N5CCC(C)(C)CC5)ccc4C3)c2c1` [Compound 81], the EC50 is 0.002 µM.

As to `Cc1nc(C)c([C@H](OC(C)(C)C)C(=O)O)c(N2CCC(C)(C)CC2)c1-c1ccc2c(c1)CCN(c1nc(N(C)C)c3ccccc3n1)C2` [Compound 82], the EC50 is 0.001 µM.

For `COc1cc2ncnc(N3CCc4cc(-c5c(C)nc(C)c([C@H](OC(C)(C)C)C(=O)O)c5N5CCC(C)(C)CC5)ccc4C3)c2cc1OC` [Compound 84], the EC50 stood at 0.002 µM.

With `Cc1nc(C)c([C@H](OC(C)(C)C)C(=O)O)c(N2CCC(C)(C)CC2)c1-c1ccc2c(c1)CCN(c1ncnc3ccc(F)cc13)C2` [Compound 85], the EC50 worked out at 0.002 µM.

As for `Cc1nc(C)c([C@H](OC(C)(C)C)C(=O)O)c(N2CCC(C)(C)CC2)c1-c1ccc2c(c1)CCN(c1nccc3ncncc13)C2` [Compound 86], the EC50 was 0.001 µM.

On to `Cc1nc2ccccc2nc1N1CCc2cc(-c3c(C)nc(C)c([C@H](OC(C)(C)C)C(=O)O)c3N3CCC(C)(C)CC3)ccc2C1` [Compound 87], for which the EC50 was determined as 0.01 µM.

Regarding `Cc1nc(C)c([C@H](OC(C)(C)C)C(=O)O)c(N2CCC(C)(C)CC2)c1-c1ccc2c(c1)CCN(c1ccnc3cccnc13)C2` [Compound 88], the EC50 was found to be 0.001 µM.

With `Cc1nc(C)c([C@H](OC(C)(C)C)C(=O)O)c(N2CCC(C)(C)CC2)c1-c1ccc2c(c1)CCN(c1ncnc3cc(Cl)ccc13)C2` [Compound 89], the EC50 turned out to be 0.004 µM.
